The results in this text go back to US9242960B2, “P38MAP kinase inhibitors” (Respivert Ltd., priority 2009, dated 2016).

The test system of assay [1] is BEAS2B cells. As to the kind of experiment: Poly I:C-induced ICAM-1 induction in BEAS2B cells. The class given is cell-based, human. As to conditions: at 10 ug/ml.
Protocol: Poly I:C (1 ug/ml) (Invivogen Ltd., San Diego, Calif.) was transfected into BEAS2B cells (human bronchial epithelial cells, ATCC) with Oligofectamine (Invitrogen, Carlsbad, Calif.). Cells were pre-incubated with final concentrations of compound for 2 hrs. The level of ICAM1 expression on the cell surface was determined by cell-based ELISA. Briefly, at 18 hrs after poly I:C transfection, cells were fixed with 4% formaldehyde in PBS. After quenching endogenous peroxidase by adding 0.1% sodium azide and 1% hydrogen peroxide, cells were washed with wash-buffer (0.1% Tween in PBS: PBS-Tween). After blocking the wells with 5% milk in PBS-Tween for 1 hr, the cells were incubated with anti-human ICAM-1 antibody (Cell Signaling Technology, Danvers, Mass.) in 1% BSA PBS overnight at 4° C. Cells were washed with PBS-Tween and incubated with the secondary antibody (HRP-conjugated anti-rabbit IgG, Dako Ltd., Glostrup, Denmark).
The test system of another assay is THP-1 cells. As to the kind of experiment: LPS-induced TNFα release in THP-1 cells. It is filed as cell-based. The conditions noted are these: Homo sapiens, read-out: IC50 Values LPS-induced TNFα release THP1 cells.
The test system of assay [2] is BEAS2B cells. As to the kind of experiment: Rhinovirus-induced ICAM-1 expression in BEAS2B cells. It is filed as cell-based, human.
Assay [3] relates to differentiated U937 cells. The assay is described as follows: LPS-induced IL-8 release in differentiated U937 cells. The class given is cell-based, human.
Protocol: U937 cells, human monocytic cell line, were differentiated to macrophage-type cells by incubation with phorbol myristate acetate (PMA; 100 ng/ml) for 48 to 72 hours. Cells were pre-incubated with final concentrations of compound for 2 hrs. Cells were then stimulated with 0.1 μg/ml of LPS (from E. Coli: O111:B4, Sigma) for 4 hrs, and the supernatant collected for determination of the IL-8 concentration by sandwich ELISA (Duo-set, R&D systems).
The test system of assay [4] is BEAS2B cells. As to the kind of experiment: Rhinovirus-induced IL-8 release in BEAS2B cells. The class given is cell-based, human.
Assay [5] deals with differentiated U937 cells. The assay is described as follows: LPS-induced TNFα release in differentiated U937 cells. It is filed as cell-based. The conditions noted are these: Homo sapiens, U-937, read-out: IC50 Values LPS-induced TNFα release d-U937 cells.
Protocol: (§1) U937 cells, human monocytic cell line, were differentiated to macrophage-type cells by incubation with phorbol myristate acetate (PMA; 100 ng/ml) for 48 to 72 hr. Where appropriate, cells were pre-incubated with final concentrations of compound for 2 hr. Cells were then stimulated with 0.1 μg/ml of LPS (from E. Coli: O111:B4, Sigma) for 4 hr, and the supernatant collected for determination of TNFα concentration by sandwich ELISA (Duo-set, R&D systems). […] THP-1, human monocytic cell line, was also used for this assay. THP-1 cells were stimulated with 3 μg/ml of LPS (from E. Coli: O111:B4, Sigma) for 4 hr, and the supernatant collected for determination of TNFα concentration.
The subject of another assay is sputum macrophages. As to the kind of experiment: Sputum macrophage assay (LPS-induced IL-8 release). The class given is cell-based, human.
Assay [6] has as its system Human rhinovirus RV16 (HRV). The assay is described as follows: Rhinovirus-titre assay in MRC5 cells. The conditions noted are these: concentration range up to 1.9 μM. The class given is cell-based.
Protocol: All titrations were performed by infecting confluent Hela cell monolayers with serially diluted supernantant (10^−1 to 10^−5) and assessing cytopathetic effect by MTT assay 4 days after infection. The amount of virus required to infect 50% of Hela cells was calculated in each treatment as TCID50 U/mL. Compounds were added 24 and 2 hr before HRV infection and 1 hr after infection when non-infected HRV was washed out.
Assay [7] relates to neutrophil and macrophage accumulation into airways. The assay is described as follows: Cigarette smoke model. The class given is in vivo, A/J mice. Set-up: dose or concentration left out as unconfirmed. The conditions noted are these: (35 μl, bid, in).
Protocol: A/J mice (males, 5 weeks old) were exposed to cigarette smoke (4% cigarette smoke, diluted with compressed air) for 30 min/day for 11 days using a Tobacco Smoke Inhalation Experiment System for small animals (Model SIS-CS; Sibata Scientific Technology, Tokyo, Japan). Test substances were given intra-nasally (35 μl of solution in 50% DMSO/PBS) and therapeutically twice daily for 3 days after the final cigarette smoke exposure. Twelve hours after the last dosing, animals were anesthetized, the trachea cannulated and bronchoalveolar lavage fluid (BALF) was collected. The numbers of alveolar macrophages and neutrophils were determined by FACS analysis (EPICS® ALTRA II, Beckman Coulter, Inc., Fullerton, Calif., USA) using anti-mouse MOMA2 antibody (macrophage) or anti-mouse 7/4 antibody (neutrophil).
For assay [8], the system named is bronchoconstrictor response to ovalbumin challenge (sGaw). As to the kind of experiment: Ovalbumin challenge/parainfluenza infection model. The class given is in vivo, guinea-pigs. The conditions noted are these: 1.5 mg per day nebulised, sensitized animals treated with PIV3 medium (initial studies).

Protocol for THP-1 cells: as §1

On to `Cc1ccc(-n2nc(C(C)(C)C)cc2NC(=O)Nc2ccc(OCCN3CCOCC3)c3ccccc23)cc1` [BIRB796], for which the “effect on poly I:C induced ICAM1 expression in BEAS2B cells” value in the assay with BEAS2B cells [1] was “no effect”. Further, the IC50 in the assay on THP-1 cells is 12 nM; in assay [5], 20 nM. Besides, the “IC50 Values BEAS2B cells Rhinovirus-induced ICAM expression” value in the assay with BEAS2B cells [2] was “NSE @ 1.9 μM”. Moreover, in [3], the “maximum inhibition of LPS-induced IL-8 release in differentiated U937 cells” value was 31%. Further, the “IC50 Values BEAS2B cells Rhinovirus-induced IL-8 release” value with BEAS2B cells [4] is given as “NSE @ 1.9 μM”. The “IC50 Values Sputum macrophages LPS-induced IL-8 release” value in the assay on sputum macrophages is on record as “NSE @ 19 μM”. Besides, the “effect on viral replication” value in assay [6] is listed as “without effect”.

`CCC(=O)O[C@]1(C(=O)SCF)[C@H](C)C[C@H]2[C@@H]3C[C@H](F)C4=CC(=O)C=C[C@]4(C)[C@@]3(F)[C@@H](O)C[C@@]21C` [fluticasone propionate]: in assay [7], the “macrophage accumulation into airways” value is “did not inhibit” and the “neutrophil accumulation into airways” value is “did not inhibit”. Further, the “ovalbumin-mediated lung function changes” value in [8] is on record as “inhibited”.

As usually defined, the IC50 is the concentration that inhibits the measured activity by half.
